Assay results published in patent publication US6057153A, “Stabilized external guide sequences” (Yale University, priority 1997, dated 2000).
“Also recorded” adds a separate entry of the source.

Key:
Substrate RNA (SUB-156) = assay: RNase P-mediated cleavage assay, single turnover conditions; type: biochemical, hepatitis B virus (HBV); details: 200 nM EGS, 20 nM substrate, saturating RNase P, 60 min
Description: RNase P-mediated cleavage assay--Human RNase P was purified from HeLa cells according to the published procedures (14). Substrate RNA (SUB-156, FIG. 24) was 5'-end labeled using T4 polynucleotide kinase and [γ-^32P]ATP. The labeling mixture was then heated to 85° C. for 1 min, diluted with RNase-free water, and purified by a MICROSPIN™ G-25 column (Pharmacia) according to the manufacturer's instructions. Cleavage reactions were conducted in a reaction buffer containing 50 mM Tris-HCl (pH 7.4), 25 mM KCl, 10 mM MgCl2 and 0.1 mM EDTA. EGS oligomers and ^32 p-5'-end-labeled RNA substrate were heated in the reaction buffer without MgCl2 to 85° C. for 1 min and then slowly cooled to room temperature. The cleavage reaction was initiated by adding 2 μl of 100 mM MgCl2 and 3 μl of RNase P (enzyme activity for this preparation: cleavage of 0.035 pmol of tRNA^Tyr precursor min^-1 μl^-1). The final reaction volume was 20 μl and the reaction was incubated at 37° C. for 60 min. […] For each sample, cleavage reactions were performed in duplicates and the average values were used. To ensure reproducibility, cleavage assays for each EGS were also repeated in two separate experiments. The all-RNA EGS-159 was used as the reference sample and its cleavage values were counted as 100%. Cleavage percentages of all other EGSs were normalized against EGS-159 (Rel. Cleavage %) except in FIG. 30 and FIG. 31 where absolute cleavage percentages (Abs. Cleavage %) were plotted.
For EGS-single turnover conditions, the final concentrations were 200 nM for EGS and 20(nM for the RNA substrate. For EGS-multiple turnover conditions, the final concentrations were 200 nM for the RNA substrate and 40 nM for EGS. When determination of the time-course was required, the reaction volume was increased to 40 μl. Aliquots of 5-8 μl were removed from the reaction mixture at different time points (e.g. 1, 5, 15, 30 and 60 min), quenched in formamide loading buffer, and loaded onto 15% polyacrylamide/8 M urea gels. Quantitation of the cleavage product and the remaining RNA substrate was achieved using a Molecular Dynamics PHOSPHORIMAGER™.
General considerations--To select lead nuclease-resistant oligonucleotide prototypes as external guide sequences among many possible modifications, a reliable yet rapid in vitro cleavage assay for routine screening was used. Human RNase P, a ribonucleoprotein, is composed of a 340-nt H1 RNA component and one or more proteins (for recent review, see Ref. 16). A 3-step screening strategy was devised: 1) All analogues once synthesized were tested by a fast qualitative cleavage assay under single turnover conditions with 10-fold excess of EGS over target RNA substrate for 60 min. […] This was the best cleavage condition used in this study. Any analogue with a reasonable activity (e.g. more than 5% cleavage) would not be missed, under these circumstances, due to the high detection sensitivity provided by PHOSPHORIMAGER™. 2) Promising analogues were then assayed for stability in 50% human serum.

2.1 kb HBV RNA = assay: RNAse P cleavage of large target RNA; type: biochemical; details: 250 nM EGS, 30 minutes at 37° C.
Description: To test cleavage with a longer target RNA molecules, different reaction conditions were used. Reactions in a total volume of 10 μl contained 40 mM Tris-HCl (pH 7.4), 10 mM MgCl2, 1 mM spermidine 10 mM dithiothreitol, 0.05 μg/μl nuclease-free bovine serum albumin, 0.01% (v/v) Triton-X100™, 0.8 Units/μl RNASIN, 0.2 mM ATP, 0.2 mM GTP, 0.2 mM UTP, 0.2 mM CTP, 0.1 μCi/μl [a^32 P] CTP, 2 mM m^7 G(5')pppG, 0.06 μg/μl yeast RNA, 25 mM KCl, 3 Units T7 RNA polymerase, 250 nM EGS, 1 μl of human RNAse P and 3 ng/μl linearized plasmid. Reactions were initiated by the addition of linearized plasmid and incubated for 30 minutes at 37° C. Reactions were terminated by the addition of 10 μl of 80% formaemide, 10 mM EDTA, 0.1% bromphenol blue. After heating for 2 minutes at 90° C., samples were electrophoresed for 2 hours at 48 watts on a 5% denaturing polyacrylamide gel. After vacuum drying for 1 hour at 60° C., the gel was analyzed by phosphoimaging.
Cleavage of Large Target RNA: Plasmid pAYW2.1, containing the sequence that encodes the 2.1 kb RNA of the AYW strain of HBV, was linearized by digestion with Not I, and then transcribed by T7 RNA polymerase in the presence of [α^32 P]CTP. Labeled transcripts were incubated for 30 minutes at 37° C. with RNase P in the presence of various EGS molecules. Reaction products were subjected to denaturing polyacrylamide gel electrophoresis, and analyzed by phosphoimaging. EGS-mediated cleavage at the targeted site of the 2.1 kb transcript produces cleavage products that are approximately 1.7 and 0.4 kb in length.

[1] = Nuclease resistance studies in 50% human serum; type: in vitro ADME; details: 37° C.
Description: Nuclease resistance studies--100 μl of EGS oligonucleotides (5 μM), containing a trace of 5'-end-labeled oligomers, were incubated at 37° C. for different time periods (0-24 h) with 50% human serum (Sigma, S-7023). 20 μl aliquots were diluted to 100 μl with RNase-free water, phenol/chlorform extracted, and ethanol precipitated. The residue was resuspended in 10 μl of TE and 10 μl of 2× gel loading buffer containing 98% formamide, 10 mM1 EDTA and 0.1% bromophenol blue. The mixture was heated to 85° C. for 1 min, quickly cooled on ice and frozen at -20° C. prior to electrophoresis on 15% polyacrylamide/8 M urea gels. Gels were subsequently scanned on a Molecular Dynamics PHOSPHORIMAGER™, and the stability profile for each, oligomer was estimated from the ratio of the remaining intact materials versus all radio-labeled materials (intact oligomers plus degradation products). Stability studies of non radio-labeled EGS oligomers using capillary gel electrophoresis were also carried out according to the method of Leeds et al. (15).

[2] = tested on: short substrate (SEQ ID NO. 1) derived from the full-length pre-genomic HBV RNA; assay: RNAse P cleavage assay, short substrate; type: biochemical; details: short substrate, EGS 200 nM, 37° C., 1 hour
Description: RNAse P Cleavage Assays: Cleavage reactions were carried out generally according to the procedure described by Yuan et al., Proc. Natl. Acad. Sci., USA, 89:8006-8010, (1992), which is hereby incorporated by reference. Briefly, short substrate reactions were made up to a total volume of 31μ in 50 mM Tris-HCl pH 7.4, 10 mM MgCl2, 25 mM KCl, 0.1 mM EDTA, […] at 37° C. for 1 hour. After incubation, the reaction solution was mixed with loading buffer (98% formamide, 10 mM EDTA, 0.025% bromophenol blue). The cleaved substrate was separated from the uncleaved by electrophoresis on a 15% acrylamide gel containing 7 M urea. The bands were quantified on a Molecular Dynamics PHOSPHORIMAGER™.
The bands corresponding to the precursor RNA substrate and the resulting two cleavage products were counted from the dried gel using a BETASCOPE™ gel analyzer (Betagen).
RNAse P was purified by DEAE SEPHAROSE™ chromatography and glycerol density gradient centrifugation essentially as described by Bartkiewicz et al., Genes Dev. 3:488-499 (1989), which is hereby incorporated by reference.
The percentage of precursor RNA substrate remaining in either assay was plotted as function of the EGS concentration and the catalytic efficiency expressed as kcat /Km (where kcat is the rate constant of cleavage and Km is the Michaelis constant), the second order rate constant for the reaction of free EGS and substrate. Following the methods of Heidenreich and Eckstein (J. Biol. Chem., 267:1904-1909 (1992), the efficiency of the cleavage reaction, kcat /Km), was determined using the formula
The EGS constructs described in Example 2 were assayed using the RNAse P cleavage assays described in Example 1 to determine the efficiency of the cleavage reaction. FIG. 1 depicts the model system using a short substrate which was used to evaluate the ability of modified EGS molecules in inducing RNase P-mediated target cleavage. The sequence of the short substrate (SEQ ID NO. 1) was derived from the full-length pre-genomic HBV RNA.

Row | Substance | RNase P-mediated cleavage activity compared to the all-RNA control (Substrate RNA (SUB-156)) | other results
1 | EGS-400: no RNA residues, remaining riboadenosines replaced by deoxynucleotides, SEQ ID NO. 47 (AGAUGAUAGAAGGUUAGAAUCCUUCACGCCGC; guide RNA; No RNA residues, remaining riboadenosines replaced by deoxynucleotides, other modifications not given here) | Significant reduction in activity | –
2 | INNO-149: SEQ ID NO. 3, 2'-O-methyl arms and T stem, phosphorothioate T loop, 3'-amino group (CGAUGAAGGUUCGAAUCCUUCCCAGGAC; 2'-O-methyl, phosphorothioate T loop, 3'-amino, chemistry not fully specified) | – | RNase P-mediated cleavage of 2.1 kb HBV RNA (2.1 kb HBV RNA): capable of inducing RNase P-mediated cleavage; also recorded: mostly cleaved; RNase P-mediated cleavage of 2.1 kb HBV RNA (2.1 kb HBV RNA; listed as analogue 149): more effective than analogue 155
3 | EGS-406: no RNA residues, remaining riboadenosines replaced by deoxynucleotides, SEQ ID NO. 50 (AGAUGAUAGAAGGUUAGAAUCCUUCACGCCGC; guide RNA; No RNA residues, remaining riboadenosines replaced by deoxynucleotides, other modifications not given here) | Significant reduction in activity | –
4 | EGS-381: C56 in the T-loop substituted with rG, SEQ ID NO. 41 (guide AGAUGAUAGAAGGUUGGAAUCCUUCACGCCGC; Riboguanosine at tRNA position 56 of T-loop, rest of chemistry not given here) | effectively substituted | –
5 | EGS-404: no RNA residues, remaining riboadenosines replaced by deoxynucleotides, SEQ ID NO. 48 (AGAUGAUAGAAGGAUAGAAUCCUUCACGCCGC; guide RNA; No RNA residues, remaining riboadenosines replaced by deoxynucleotides, other modifications not given here) | Significant reduction in activity | –
6 | EGS-364: EGS-356 with disrupted T-stem, SEQ ID NO. 34 (guide AGAUGAUACACUGUUCGAAUGGUACACGCCGCN; chemistry not given here) | – | stability in 50% human serum ([1]; experiment of 2 h): did not change the results
7 | EGS-380: C56 in the T-loop substituted with rA, SEQ ID NO. 40 (guide AGAUGAUAGAAGGUUAGAAUCCUUCACGCCGC; Riboadenosine at tRNA position 56 of T-loop, rest of chemistry not given here) | effectively substituted | –
8 | EGS-405: no RNA residues, remaining riboadenosines replaced by deoxynucleotides, SEQ ID NO. 49 (AGAUGAUAGAAGGTUAGAAUCCUUCACGCCGC; guide RNA; No RNA residues, remaining riboadenosines replaced by deoxynucleotides, other modifications not given here) | Significant reduction in activity | –
9 | INNO-124: SEQ ID NO. 2, 2'-O-methyl arms, variable loop, T stem and first 5'-U of T loop (CGAUACGGAAGGUUCGAAUCCUUCCCAGGAC; 2'-O-methyl modifications, chemistry not fully specified) | – | efficiency of RNase P-mediated target cleavage relative to the wild-type EGS [2]: most pronounced decrease in cleavage efficiency
10 | INNO-126: SEQ ID NO. 2, 2'-O-methyl arms, variable loop, T stem and third 5'-C of T loop (CGAUACGGAAGGUUCGAAUCCUUCCCAGGAC; 2'-O-methyl modifications, chemistry not fully specified) | – | efficiency of RNase P-mediated target cleavage relative to the wild-type EGS [2]: most pronounced decrease in cleavage efficiency
11 | EGS H62: all-RNA EGS, SEQ ID NO. 3, prepared by T7 RNA polymerase transcription (guide CGAUGAAGGUUCGAAUCCUUCCCAGGAC; unmodified RNA) | – | RNase P-mediated cleavage of 2.1 kb HBV RNA (2.1 kb HBV RNA): Complete cleavage
12 | EGS-399: U54 replaced with riboadenosine, SEQ ID NO. 45 (AGAUGAUAGAAGGAUAGAAUCCUUCACGCCGC; guide RNA; Riboadenosine at tRNA position 54, rest of chemistry not given here) | promising | fraction degraded in 50% human serum ([1]; 24 h): 16%
